According to patent publication US9498438B2 (The University of Liverpool, priority 2011, dated 2016):

Tests used:
Type in all cases: cell-based
[1] = ATP cell viability assay (CellTiter-Glo) cytotoxicity; conditions: human, THP-1 (monocyte) cells
[2] = as above; conditions: human
Excerpt: HepG2 (hepatic) and Caco-2 (intestinal) cells were purchased from American Type Tissue Culture (ATCC; USA) and maintained in Dulbecco's modified eagle's medium (DMEM; Sigma; Dorest, Uk) supplemented with 10% fetal bovine serum (FBS; Bio-Whittaker, Berkshire, Uk) for HepG2 and 15% FBS for Caco-2. CEM (lymphocyte) and THP-1 (monocyte) cells were purchased from European Collection of Cell Culture (ECACC; Porton Down, Uk) and grown in RPMI-1640 (Sigma; Dorest, Uk) supplemented with 10% FBS. All cell lines were incubated at 37° C. and 5% CO2 and for adherent cells (HepG2 and Caco-2) were routinely sub-cultured every 4 days when 95% confluent. Suspension cells (CEM and THP-1) were routinely sub-cultured when a density of 1×10^6 cells/ml was achieved. Cell count and viability was determined by Trypan Blue exclusion assay.
HepG2, Caco-2, THP-1, CEM and A-THP-1 cells were separately seeded at a density of 2.5×10^4/100 μl in their appropriate media into each well of a 96 well plate (Nunclon™, Denmark) and incubated for 24 hours at 37° C. and 5% CO2. […]
Prior to starting viability assays, all reagents were made fresh and in accordance to manufacturer's instructions and allowed to equilibrate to room temperature immediately before use. […] Luminescence was then measured using a Tecan Genios plate reader (Tecan; Austria).

[3] = as above; conditions: human, A-THP-1 (PMA-activated THP-1, macrophage like) cells
Description: Cells were then incubated at 37° C. and 5% CO2 for 7 days prior to use to allow differentiation from monocyte to macrophage like cells.
The same procedure was followed for each individual excipient (23 samples) with concentrations range of 1 μM to 1 M.
Prior to starting viability assays, all reagents were made fresh and in accordance to manufacturer's instructions and allowed to equilibrate to room temperature immediately before use. After 24 hours incubation, 96 well plates were removed from the incubator and the plate and its contents allowed too equilibrate to room temperature for approximately 30 minutes. After 30 minutes, 80 μl of media was aspirated from each individual well and 20 μl CellTiter-Glo® Reagent (Promega, UK) was added to the remaining media and cells. The contents were then mixed for 2 minutes on an orbital shaker to induce cell lysis. The plate was then further incubated at room temperature for 10 minutes to stabilise luminescent signal. Luminescence was then measured using a Tecan Genios plate reader (Tecan; Austria).

HIVIIIB in MT4 cells = assay: Inhibition of cultured HIV-IIIB in MT4 cells (MTT assay); conditions: Human immunodeficiency virus 1, 120 h, 70% loaded, 5 days, read-out: IC50 (nM), Table 11
Description: HIVIIIB and the human T-cell line, MT4, were supplied by the National Institute for Biological Standards and Control (NIBSC), the Centre for AIDS Reagents (CFAR: Hertfordshire, Uk). MT4 cells were grown and routinely maintained in RPMI-1640 (Sigma; Dorest, Uk) supplemented with 10% fetal bovine serum (FBS; Bio-Whittaker, Berkshire, Uk) at 37° C. and 5% CO2 and sub-cultured every 3 days. Cell counts and viability was determined by Trypan Blue exclusion using a disposable plastic haemocytometer (Labtech International Ltd, UK). HIVIIIB was propagated by passage through MT4 cells in RPMI-1640 and 10% FBS for 12 days and a subsequent multiplicity of infection (MOI) was determined by MTT assay.
MT4 cells were dispensed into 50 ml falcon tubes and centrifuged at 2000 rpm and 4° C. for 5 minutes. The supernatant was aspirated and the resulting pellet resuspended to a cell density of 1×10^5/ml in RPMI 1640 supplemented with 10% FBS and 1 ml of viral isolate (M.O.I 0.001). After further centrifugation for 5 minutes at 2000 rpm, the MT4/HIVIIIB pellet was incubated at 37° C. and 5% CO2 for 2 hours. […]
Following incubation for 5 days of MT4/HIVIIIB with nano formulated EFV at 37° C. and 5% CO2. […] Absorbance was read at 570 nm on a plate reader (Tecan Magellan, Austria).

`O=C1Nc2ccc(Cl)cc2[C@@](C#CC2CC2)(C(F)(F)F)O1` [Aqueous solution, efavirenz] showed an IC50 at 24 h [1] of 29 µM, an IC50 at 24 h ([2]; CEM (lymphocyte) cells) of 40 µM and an IC50 at 24 h ([2]; HepG2 (hepatic) cells) of 33 µM. It also gave an IC50 at 24 h [3] of 29 µM and an IC50 (HIVIIIB in MT4 cells) of 71 nM.
